From patent publication US20240343727A1, “PYRIDAZINONE OR PYRIDINONE COMPOUNDS, PREPARATION METHODS AND USES THEREOF” (InventisBio Co., Ltd., priority 2021, published 2024)

What follows are compounds tested against T1, PARP7 (Homo sapiens, UniProt Q7Z3E1) (assay: PARP7 TR-FRET assay (binding, displacement of biotinylated Probe A)). Details: 6 nM PARP7, 2 nM Probe A, 25° C., 30 min.
T1 sequence (Q7Z3E1 1-657): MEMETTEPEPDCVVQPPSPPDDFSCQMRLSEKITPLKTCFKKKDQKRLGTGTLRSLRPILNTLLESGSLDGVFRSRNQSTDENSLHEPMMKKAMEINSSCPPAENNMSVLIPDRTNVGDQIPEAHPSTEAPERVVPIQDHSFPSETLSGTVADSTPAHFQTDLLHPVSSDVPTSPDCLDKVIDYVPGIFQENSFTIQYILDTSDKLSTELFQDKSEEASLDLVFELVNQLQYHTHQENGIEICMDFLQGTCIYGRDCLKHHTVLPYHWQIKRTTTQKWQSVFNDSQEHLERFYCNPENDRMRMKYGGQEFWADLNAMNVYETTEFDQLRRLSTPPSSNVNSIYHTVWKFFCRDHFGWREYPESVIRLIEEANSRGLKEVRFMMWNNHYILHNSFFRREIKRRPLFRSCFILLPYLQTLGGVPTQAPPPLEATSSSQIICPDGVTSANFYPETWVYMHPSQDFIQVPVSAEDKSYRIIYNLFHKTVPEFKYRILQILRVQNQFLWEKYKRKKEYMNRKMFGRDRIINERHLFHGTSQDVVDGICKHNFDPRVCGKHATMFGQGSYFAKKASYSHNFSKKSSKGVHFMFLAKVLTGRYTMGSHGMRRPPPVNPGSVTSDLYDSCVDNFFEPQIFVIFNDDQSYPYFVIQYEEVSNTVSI
Outline: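 His-tagged PARP7 at 6 nM was preincubated with compound and 2 nM biotinylated Probe A for 30 min at 25° C (HEPES pH 8.0, NaCl, BSA, DTT, Tween20). Europium-streptavidin/ULight-anti-His FRET was read as the 665/615 nm ratio after a further 30 min. IC50 was fitted from % inhibition normalised to vehicle and blank.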

`O=C(c1cccc(Oc2n[nH]c(=O)c(C(F)(F)F)c2C2CC2)c1)N1CCN(c2ncc(C(F)(F)F)cn2)CC1` [Compound 173] and `N#CC1CN(c2c(Oc3cccc(C(=O)N4CCN(c5ncc(C(F)(F)F)cn5)CC4)c3)n[nH]c(=O)c2C(F)(F)F)C1` [Compound 60] cannot be ordered by IC50: less than 0.1 µM for the first, less than 0.1 µM for the second.

Going from `N#CC1(c2ccnc(N3CCN(C(=O)CC4CN(c5cc(C(F)(F)F)c(=O)[nH]n5)c5cc(Cl)ccc5O4)CC3)n2)CC1` (single isomer, unassigned) [Compound 345] to `N#Cc1cnc(N2CCN(C(=O)CC3CN(c4cc(C(F)(F)F)c(=O)[nH]n4)c4cc(C#N)ccc4O3)CC2)nc1` (single isomer, unassigned) [Compound 218], the IC50 falls from greater than 1 µM to less than 0.1 µM.

Compared with `O=C(CC1CN(c2cc(C(F)(F)F)c(=O)[nH]n2)c2ccccc2O1)N1CCN(c2ccc(C(F)(F)F)cn2)CC1` (single isomer, unassigned) [Compound 246], `O=C(CC1CN(c2cc(C(F)(F)F)c(=O)[nH]n2)c2ccccc2O1)N1CCN(c2ccc(Cl)cn2)CC1` (single isomer, unassigned) [Compound 260] is higher in IC50: less than 0.1 µM for the first, 0.1 to 1 µM for the second. The first is the more potent here.

`N#Cc1ccc(N2CCN(C(=O)c3cc(Oc4n[nH]c(=O)c(C(F)(F)F)c4N4CC5(C4)CC(F)(F)C5)ccn3)CC2)nc1` [Compound 306] and `O=C(c1cc(Oc2n[nH]c(=O)c(C(F)(F)F)c2N2CC3(C2)CC(F)(F)C3)ccn1)N1CCN(c2ncc(C3CC3)cn2)CC1` [Compound 308] cannot be ordered by IC50: less than 0.1 µM for the first, less than 0.1 µM for the second.

`O=C(c1cccc(Oc2n[nH]c(=O)c(C(F)(F)F)c2N2CC3(CCO3)C2)c1)N1CCN(c2ncc(C(F)(F)F)cn2)CC1` [Compound 212] and `O=C(c1cccc(Oc2n[nH]c(=O)c(C(F)(F)F)c2N2CC3(CC3)C2)c1)N1CCN(c2ncc(C(F)(F)F)cn2)CC1` [Compound 59] cannot be ordered by IC50: less than 0.1 µM for the first, less than 0.1 µM for the second.

Compared with `O=C(CC1CN(c2cc(C(F)(F)F)c(=O)[nH]n2)CCO1)N1CCN(c2ncc(C(F)(F)F)cn2)CC1` (single isomer, unassigned) [Compound 31], `O=C([C@H]1CN(c2cc(C(F)(F)F)c(=O)[nH]n2)CCO1)N1CCN(c2ncc(C(F)(F)F)cn2)CC1` [Compound 33] is higher in IC50: less than 0.1 µM for the first, 0.1 to 1 µM for the second.

`Cn1cc(-c2ccc3c(c2)N(c2cc(C(F)(F)F)c(=O)[nH]n2)CC(CC(=O)N2CCN(c4ncc(C(F)(F)F)cn4)CC2)O3)cn1` (single isomer, unassigned) [Compound 192] and `N#Cc1ccc2c(c1)N(c1cc(C(F)(F)F)c(=O)[nH]n1)CC(CC(=O)N1CCN(c3ncc(C(F)(F)F)cn3)CC1)O2` (single isomer, unassigned) [Compound 200] cannot be ordered by IC50: less than 0.1 µM for the first, less than 0.1 µM for the second.

Compared with `O=C(CC1CN(c2n[nH]c(=O)c3ccc(N4CC(F)(F)C4)cc23)CCO1)N1CCN(c2ncc(C(F)(F)F)cn2)CC1` (single isomer, unassigned) [Compound 220], `O=C(CC1CN(c2n[nH]c(=O)c3cc(Cl)cc(F)c23)CCO1)N1CCN(c2ncc(C(F)(F)F)cn2)CC1` (single isomer, unassigned) [Compound 240] is higher in IC50: less than 0.1 µM for the first, 0.1 to 1 µM for the second. The first is the more potent here.

`CC1(C#N)CN(c2c(Oc3cccc(C(=O)N4CCN(c5ncc(C(F)(F)F)cn5)CC4)c3)n[nH]c(=O)c2C(F)(F)F)C1` [Compound 213] and `COCC1CN(c2c(Oc3cccc(C(=O)N4CCN(c5ncc(C(F)(F)F)cn5)CC4)c3)n[nH]c(=O)c2C(F)(F)F)C1` [Compound 186] cannot be ordered by IC50: less than 0.1 µM for the first, less than 0.1 µM for the second.

`O=C(c1cccc(Oc2n[nH]c(=O)c(C(F)(F)F)c2N2CC3(CCO3)C2)c1)N1CCN(c2ncc(C(F)(F)F)cn2)C2(CC2)C1` [Compound 253] and `O=C(c1cncc(Oc2n[nH]c(=O)c(C(F)(F)F)c2N2CC3(CCCO3)C2)c1)N1CCN(c2ncc(C(F)(F)F)cn2)CC1` [Compound 233] cannot be ordered by IC50: less than 0.1 µM for the first, less than 0.1 µM for the second.

First: C[C@@H]1CN(c2n[nH]c(=O)c3cccc(F)c23)C[C@@H](CC(=O)N2CCN(c3ncc(C(F)(F)F)cn3)CC2)O1 (stereo in doubt) [Compound 90]
Second: C[C@H]1CN(c2cc(C(F)(F)F)c(=O)[nH]n2)C[C@@H](CC(=O)N2CCN(c3ncc(C(F)(F)F)cn3)CC2)O1 (stereo in doubt) [Compound 79]
The IC50 of the first is higher: 0.1 to 1 µM for the first, less than 0.1 µM for the second. The second is the more potent here.

Compared with `O=C(CC[C@@H]1COCCN1c1cc(C(F)(F)F)c(=O)[nH]n1)N1CCN(c2ncc(C(F)(F)F)cn2)CC1` [Compound 58], `O=C(CC1CN(c2cc(C(F)(F)F)c(=O)[nH]n2)c2ccc(Cl)cc2O1)N1CCN(c2ncc(C(F)(F)F)cn2)CC1` (single isomer, unassigned) [Compound 164] is higher in IC50: less than 0.1 µM for the first, 0.1 to 1 µM for the second.

First: O=C(CC1CN(c2cc(C(F)(F)F)c(=O)[nH]n2)c2ccccc2O1)N1CCN(c2nnc(C(F)(F)F)s2)CC1 (single isomer, unassigned) [Compound 288]
Second: O=C(CC1CN(c2cc(C(F)(F)F)c(=O)[nH]n2)c2ccccc2O1)N1CCN(c2ccc(C(F)(F)F)cn2)CC1 (single isomer, unassigned) [Compound 247]
The IC50 of the first is higher: greater than 1 µM for the first, 0.1 to 1 µM for the second.

`Cc1c(Oc2cc(C(=O)N3CCN(c4ncc(C(F)(F)F)cn4)CC3)ccc2C2CC2)n[nH]c(=O)c1C(F)(F)F` [Compound 64] and `Cc1ccc(Oc2n[nH]c(=O)c(C(F)(F)F)c2C)cc1C(=O)N1CCN(c2ncc(C(F)(F)F)cn2)CC1` [Compound 65] cannot be ordered by IC50: less than 0.1 µM for the first, less than 0.1 µM for the second.

`O=C(c1cccc(Oc2n[nH]c(=O)c(C(F)(F)F)c2NCC2CCOCC2)c1)N1CCN(c2ncc(C(F)(F)F)cn2)CC1` [Compound 203] and `CN(C)CCNc1c(Oc2cccc(C(=O)N3CCN(c4ncc(C(F)(F)F)cn4)CC3)c2)n[nH]c(=O)c1C(F)(F)F` [Compound 172] cannot be ordered by IC50: less than 0.1 µM for the first, less than 0.1 µM for the second.

`O=C(CC1CN(c2cc(C(F)(F)F)c(=O)[nH]n2)c2cc(C(F)F)ccc2O1)N1CCN(c2ncc(C(F)(F)F)cn2)CC1` (single isomer, unassigned) [Compound 227] and `COCc1ccc2c(c1)N(c1cc(C(F)(F)F)c(=O)[nH]n1)CC(CC(=O)N1CCN(c3ncc(C(F)(F)F)cn3)CC1)O2` (single isomer, unassigned) [Compound 267] cannot be ordered by IC50: less than 0.1 µM for the first, less than 0.1 µM for the second.

First: O=C(c1cncc(Oc2n[nH]c(=O)c(C(F)(F)F)c2N2CC(C3CC3)C2)c1)N1CCN(c2ncc(C(F)F)cn2)CC1 [Compound 279]
Second: CCOC1CN(c2c(Oc3cncc(C(=O)N4CCN(c5ncc(C(F)(F)F)cn5)CC4)c3)n[nH]c(=O)c2C(F)(F)F)C1 [Compound 322]
The IC50 of the first is lower: less than 0.1 µM for the first, 0.1 to 1 µM for the second.

`O=C(CC1CN(c2cc(C(F)(F)F)c(=O)[nH]n2)c2cc(C(F)F)ccc2O1)N1CCN(c2ncc(C(F)(F)F)cn2)CC1` (single isomer, unassigned) [Compound 228] and `CC(C)(O)c1cnc(N2CCN(C(=O)CC3CN(c4cc(C(F)(F)F)c(=O)[nH]n4)c4cc(F)ccc4O3)CC2)nc1` (single isomer, unassigned) [Compound 348] cannot be ordered by IC50: less than 0.1 µM for the first, less than 0.1 µM for the second.

`COC[C@H]1C[C@@H]1Nc1c(Oc2cccc(C(=O)N3CCN(c4ncc(C(F)(F)F)cn4)CC3)c2)n[nH]c(=O)c1C(F)(F)F` [Compound 198] and `O=C(c1cccc(Oc2n[nH]c(=O)c(C(F)(F)F)c2N2CC3(CCC3)C2)c1)N1CCN(c2nnc(C(F)(F)F)s2)CC1` [Compound 231] cannot be ordered by IC50: less than 0.1 µM for the first, less than 0.1 µM for the second.

`O=C(c1cncc(Oc2n[nH]c(=O)c(C(F)(F)F)c2N2CC3(C2)CC(F)(F)C3)c1)N1CCN(c2cnc(C(F)(F)F)cn2)CC1` [Compound 334] and `O=C(c1cncc(Oc2n[nH]c(=O)c(C(F)(F)F)c2N2CC3(CCCO3)C2)c1)N1CCN(c2ncc(Cl)cn2)CC1` [Compound 234] cannot be ordered by IC50: less than 0.1 µM for the first, less than 0.1 µM for the second.
